The source of these data is patent publication US10668048B2, “Compounds for inhibiting bacterial growth via phosphatidylglycerol binding” (Wichita State University, priority 2016, dated 2020).

What all share (type): cell-based
One data set deals with E. coli (MC4100). The experiment in a line: Overnight growth study in LB broth. The text has this: This spectrum is identical to the spectrum of just liptin in water illustrating that the liptin is not degraded or metabolized when exposed to bacteria over long periods of time.
The subject of data set [1] is Escherichia coli str. MC4100. The experiment in a line: Long term growth study in brain-heart infusion medium. The protocol:
(§1) Staphylococcus aureus str. ATCC 29213 was grown as shake-tubes in brain-heart infusion medium supplemented with liptin and culture densities were measured by turbidity (FIG. 13A). At 0.5 μM 3e, there was an 8-h lag phase before culture density began to increase, which was not seen without addition of liptin 3e. Further, the growth rate was substantially lower over the next 12 h as culture density approached that of controls. Lag phases were on the order of days to weeks at liptin concentrations of ≥1.5 μM, and slow recovery followed. […] Growth of Escherichia coli str. […] Our novel antibacterial compounds attack plasma membranes through a less specific mode of action, which may avoid the pitfalls that lead to antibiotic resistance.

Data set [2] relates to Staphylococcus aureus str. ATCC 29213. Described as above. The protocol: as §1
The test system of data set [3] is S. aureus plasma membrane. Nature of the data set: Plasma membrane depolarization, DiS-C2(5) fluorescence. Conditions: 0.69-2.6 μM added at 90 s. As to the method:
The graph in FIGS. 15A-15C represents the depolarization of S. aureus plasma membrane measured by an increase in the fluorescence of 3,3-diethylthiodicabodyanine iodide. The dye, which has direct access to the Gram-positive plasma membrane, becomes highly fluorescent in membranes where polarization is lost. […] The membrane effects were measured against the known membrane-disruptive agent, cationic steroid antimicrobial-25 (CSA-25), one of a group of cholic acid-derived antimicrobial also known as ceragenins. This assay measured the effects of the Ammonium-picket porphyrin alone those of CSA-25 alone or a combination of Ammonium-picket porphyrin and CSA-25.
Bacterial cultures were grown overnight in TSB at 37° C. Cells were harvested by centrifugation and washed in a buffer containing 250 mM sucrose, 5 mM MgSO4, and 10 mM potassium phosphate (pH 7.0). After three washings, pellets were re-suspended in the same buffer. […] Fluorescence measurements were taken at 30-s intervals before and after addition of ceragenins. FIG. 15A illustrates the depolarization of S. aureus measured by an increase in fluorescence of 3,3′ diethylthiodicarbodyanine iodide (DiS-C2(5)). […]
FIG. 15B illustrates the depolarization of S. aureus measured by an increase in fluorescence of 3,3′ diethylthiodicarbodyanine iodide. […]

Data set [4] deals with HepG2 human hepatocyte cells. The experiment in a line: Hepatocyte toxicity, MTT assay. To be noted: 9-12 hours; down to 0.5 μM. The protocol: Toxicity of compounds to eukaryotic cells was assessed by MTT assay of cultured HepG2 human hepatocyte cells grown in media supplemented with 10% fetal bovine serum and antibiotics.
Human liver HepG2 cells were cultured in 100 mm^2 Falcon tissue culture plates in DMEM with high glucose (4500 mg/L) supplemented with 10% fetal bovine serum, 50 μg/ml streptomycin and 50 IU/ml penicillin at 37° C. and 5% CO2. Cells were cultured to about 70-80% confluence, and then seeded into 96 well plates depending and grown to 70-80% confluence for 2-3 days unless otherwise stated.
Cell viability was determined by MTT [3-(4,5-dimethylthiazol-2-yl)-2,5-diphenyltetrazolium bromide)] assay (Denizot & Lang 1986). Briefly, cells were seeded on 96-well plates and allowed to grow until 70-80% confluence. Prior to the experiment, medium was replaced with KRB containing a desired concentration of the toxin or other reagents and incubated for 9 h to 12 h depending on the experiment at 37° C. […] The resulting formazan was solubilized by the addition of 210 μL detergent solution (50% DMF, 20% SDS) followed by incubation for 4 h at 37° C. and was quantified based on the difference in the absorbance at 570 nm and 650 nm (Mosmann 1983). Results are expressed as viability of toxin treated cells with respect to control cells which were treated under the same conditions except in the absence of the toxin. […]
On the technique in general: Tetrazolium dyes change colour on reduction, which living cells bring about.

For `NCC(=O)Nc1ccccc1-c1c2nc(c(-c3ccccc3NC(=O)CN)c3ccc([nH]3)c(-c3ccccc3NC(=O)CN)c3nc(c(-c4ccccc4NC(=O)CN)c4ccc1[nH]4)C=C3)C=C2.O=C(O)C(F)(F)F.O=C(O)C(F)(F)F.O=C(O)C(F)(F)F.O=C(O)C(F)(F)F` [Liptin 3e], the “stability: UV/Visible spectrum of membrane-bound liptin” value in the data set on E. coli (MC4100) (12 hours in bacterial culture) is given as “no change”. For the same compound, the “time until bacterial replication completely stops” value in the data set on E. coli (MC4100) (one-time addition of 10 μM, growth phase, 37° C., OD=0.2, stopped for 12 hours) was 1 to 2 h. For the same compound, the figures for the lag phases in data set [1] (1.5 μM), in data set [1] (10 μM) and in data set [2] (≥1.5 μM) were 8 h, “greater than 24 h” and “days to weeks”, respectively. Further, in data set [2] (0.5 μM), the lag phase amounted to 8 h. Further, the “depolarization: fluorescence of 3,3-diethylthiodicabodyanine iodide” value in data set [3] was “increased in a concentration-dependent manner”. In addition, the “toxicity (cell viability, MTT)” value in data set [4] is on record as “lack of toxicity”.
